According to US20190119282A1, “IMIDAZOPYRIDAZINES USEFUL AS INHIBITORS OF THE PAR-2 SIGNALING PATHWAY” (Vertex Pharmaceuticals Incorporated, priority 2013, published 2019):

How the values were obtained:
[1] = system: Thrombin-stimulated Ca2+ response in HT-29 cells; assay: Ca FLIPR TETRA assay, ANTAGONIST mode, stimulation with 1 U/mL Thrombin; assay type: cell-based, human; conditions: Homo sapiens, HT-29 cells, stimulation with 1 U/mL Thrombin
In short: (§1)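 Cells plated overnight at 37 °C, 5% CO2 in 1% FBS medium; dye loading 45 min at 37 °C then 15 min r.t.; compound added from DMSO/HBSS dilution; first read for intrinsic Ca2+ activation; 30 min r.t. incubation; antagonist read after addition of the fixed activator (8 μM SLIGKV, 1 U/mL thrombin, 3.1 U/mL trypsin or 0.6 μM UTP).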

[2] = system: UTP-stimulated Ca2+ response in HT-29 cells; assay: Ca FLIPR TETRA assay, ANTAGONIST mode, stimulation with 0.6 μM UTP; assay type: cell-based, human; conditions: Homo sapiens, HT-29 cells, stimulation with 0.6 μM UTP
In short: as §1

[3] = molecular target: T1, PAR2 (HT-29 cells, trypsin activation) (Homo sapiens, UniProt P55085); assay: Ca FLIPR TETRA assay, ANTAGONIST mode, stimulation with 3.1 U/mL trypsin; assay type: cell-based; conditions: HT-29 cells, stimulation with 3.1 U/mL trypsin
T1 construct: host or cells: HT-29 cells
T1 sequence (P55085 26-397): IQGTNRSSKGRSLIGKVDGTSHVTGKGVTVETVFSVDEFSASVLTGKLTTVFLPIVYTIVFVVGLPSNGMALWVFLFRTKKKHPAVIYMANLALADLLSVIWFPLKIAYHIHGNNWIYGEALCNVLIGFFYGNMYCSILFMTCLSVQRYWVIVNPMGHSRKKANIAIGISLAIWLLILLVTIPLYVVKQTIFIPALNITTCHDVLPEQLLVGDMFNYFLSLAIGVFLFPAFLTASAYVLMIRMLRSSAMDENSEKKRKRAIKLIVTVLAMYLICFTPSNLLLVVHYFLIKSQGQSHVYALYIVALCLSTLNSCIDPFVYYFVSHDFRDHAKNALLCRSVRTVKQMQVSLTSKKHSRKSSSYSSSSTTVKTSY
In short: as §1

[4] = molecular target: T2, PAR2 (HT-29 cells, SLIGKV activation) (Homo sapiens, UniProt P55085); assay: Ca FLIPR TETRA assay, ANTAGONIST mode, stimulation with 8 μM SLIGKV; assay type: cell-based; conditions: HT-29 cells, stimulation with 8 μM SLIGKV
T2 construct: host or cells: HT-29 cells
T2 sequence (P55085 26-397): T1 sequence (P55085 26-397)
In short: as §1

Row | SMILES | IC50 [1] [µM] | IC50 [2] [µM] | IC50 [3] [µM] | IC50 [4] [µM] | IC50 ([1]; antagonist mode) [µM] | IC50 ([2]; antagonist mode) [µM] | IC50 ([3]; antagonist mode) [µM] | IC50 ([4]; antagonist mode) [µM]
1 | CCc1cc(-c2ccc(F)cc2)nn2cc(C(=O)N3CCN(C(=O)Cc4ccncc4)[C@@H](C)C3)nc12 [Compound I-163] | 12 | 13 | 1.7 | 0.64 | – | – | – | –
2 | CCc1cc(-c2ccc(F)cc2)nn2cc(C(=O)N3CCN(C(=O)CC4CCOCC4)[C@@H](C)C3)nc12 [Compound I-164] | 54 | 54 | 2 | 0.2 | – | – | – | –
3 | CCc1cc(-c2ccc(F)cc2)nn2cc(C(=O)N3CCN(C(=O)[C@H](O)CC(C)(C)C)CC3(C)C)nc12 [Compound I-165] | 7.4 | 8 | 0.002 | 0.001 | – | – | – | –
4 | CCc1cc(-c2ccc(F)cc2)nn2cc(C(=O)N3CCN(C(=O)[C@H](O)C(C)C)CC3(C)C)nc12 [Compound I-166] | 23 | 27 | 0.053 | 0.016 | – | – | – | –
5 | CCc1cc(-c2ccc(F)cc2)nn2cc(C(=O)N3CCN(C(=O)[C@H](O)CC(C)C)CC3(C)C)nc12 [Compound I-167] | 8.5 | 9.6 | 0.002 | 0.002 | – | – | – | –
6 | CCc1cc(-c2ccc(F)cc2)nn2cc(C(=O)N3CCN(C(=O)[C@H](O)C(C)C)[C@@H](C)C3)nc12 [Compound I-168] | 16 | 13 | 0.35 | 0.067 | – | – | – | –
7 | CCc1cc(-c2ccc(F)cc2)nn2cc(C(=O)N3CCN(C(=O)[C@H](O)CC(C)C)[C@@H](C)C3)nc12 [Compound I-169] | 25 | 26 | 0.017 | 0.01 | – | – | – | –
8 | CCc1cc(-c2ccc(F)cc2)nn2cc(C(=O)N3CCN(C(=O)[C@H](O)CC4CC4)[C@@H](C)C3)nc12 [Compound I-170] | 33 | 30 | 0.038 | 0.014 | – | – | – | –
9 | CCc1cc(-c2ccc(F)cc2)nn2cc(C(=O)N3CCN(C(=O)[C@H](O)CC4CC4)CC3(C)C)nc12 [Compound I-173] | 20 | 23 | 0.013 | 0.008 | – | – | – | –
10 | CC(C)c1cc(-c2ccc(F)cc2)nn2cc(C(=O)N3CCN(C(=O)C(C)(C)O)CC3(C)C)nc12 [Compound I-174] | 35 | 38 | 0.055 | 0.028 | – | – | – | –
11 | CC(C)c1cc(-c2ccc(F)cc2)nn2cc(C(=O)N3CCN(C(=O)C(O)C(C)C)CC3(C)C)nc12 (stereo not shown) [Compound I-176] | 14 | 17 | 0.011 | 0.006 | – | – | – | –
12 | CC(C)c1cc(-c2ccc(F)cc2)nn2cc(C(=O)N3CCN(C(=O)C4(O)CCC4)C[C@H]3C)nc12 [Compound I-178] | 43 | 14 | 8.3 | 4.8 | – | – | – | –
13 | CCC1(C)C(=O)NCCN1C(=O)c1cn2nc(-c3ccc(F)cc3)cc(C(C)C)c2n1 (stereo not shown) [Compound I-179] | 6.9 | 8.5 | 0.011 | 0.003 | – | – | – | –
14 | CC(C)c1cc(-c2ccc(F)cc2)nn2cc(C(=O)N3CCN(CC(C)(C)O)C(=O)C3(C)C)nc12 [Compound I-180] | > 50 | 18 | 0.041 | 0.032 | – | – | – | –
15 | CC(C)c1cc(-c2ccc(F)cc2)nn2cc(C(=O)N3CCN(C)C(=O)C3(C)C)nc12 [Compound I-181] | 10 | 5.8 | 0.011 | 0.01 | – | – | – | –
16 | C[C@H]1CN(c2cc(-c3ccc(F)cc3)nn3cc(C(=O)N4CCNC(=O)C4(C)C)nc23)C[C@H](C)O1 [Compound I-183] | – | – | – | – | 0.84 | 0.81 | 0.0336 | 0.015
17 | CC(C)(O)c1cc(-c2ccc(F)cc2)nn2cc(C(=O)N3CCNC(=O)C3(C)C)nc12 [Compound I-184, 4-[6-(4-fluorophenyl)-8-(1-hydroxy-1-methyl-ethyl)imidazo[1,2-b]pyridazine-2-carbonyl]-3,3-dimethyl-piperazin-2-one] | – | – | – | – | 1.45 | 1.95 | 0.182 | 0.125
18 | CC(C)[C@@H](O)C(=O)N1CCN(C(=O)c2cn3nc(-c4ccc(F)cc4)cc(N4C[C@@H](C)O[C@@H](C)C4)c3n2)C(C)(C)C1 [Compound I-186] | – | – | – | – | 1.5 | 1.8 | 0.0387 | 0.0277
19 | CC(C)c1cc(-c2ccc(F)cc2)nn2cc(C(=O)N3C[C@H](C)OCC3(C)C)nc12 [Compound I-187] | – | – | – | – | > 50 | 33 | 0.0525 | 0.0625
20 | CC(C)(CO)c1cc(-c2ccc(F)cc2)nn2cc(C(=O)N3CCNC(=O)C3(C)C)nc12 [Compound I-189] | – | – | – | – | > 1 | > 50 | 0.417 | 0.4
21 | CN(C)C(=O)C(C)(C)c1cc(-c2ccc(F)cc2)nn2cc(C(=O)N3CCNC(=O)C3(C)C)nc12 [Compound I-192] | – | – | – | – | > 50 | > 50 | 8.95 | 0.575
22 | CN(C)C(=O)CN1CCN(C(=O)c2cn3nc(-c4ccc(F)cc4)cc(C(C)(C)C)c3n2)C(C)(C)C1=O [Compound I-194] | – | – | – | – | > 1 | > 1 | 0.0403 | 0.0413
23 | CC(C)c1cc(-c2ccc(F)cc2)nn2cc(C(=O)N3CCN(C(=O)[C@H](O)CC(C)(C)C)C[C@H]3C)nc12 [Compound I-196] | – | – | – | – | > 1 | > 1 | 0.02 | 0.0205
24 | CC(C)c1cc(-c2ccc(F)cc2)nn2cc(C(=O)N3CCN(C(=O)[C@H](O)CC(C)(C)C)C[C@@H]3C)nc12 [Compound I-197] | – | – | – | – | > 1 | > 1 | 0.43 | 0.15
25 | CC(C)(C)c1cc(-c2ccc(F)cc2)nn2cc(C(=O)N3CCN(C(=O)c4ccno4)CC3(C)C)nc12 [Compound I-202] | – | – | – | – | > 1 | > 1 | 0.0009 | 0.0006

More lines, now with the values ahead:

Row | IC50 [1] [µM] | IC50 [2] [µM] | IC50 [3] [µM] | IC50 [4] [µM] | IC50 ([1]; antagonist mode) [µM] | IC50 ([2]; antagonist mode) [µM] | IC50 ([3]; antagonist mode) [µM] | IC50 ([4]; antagonist mode) [µM] | SMILES
26 | 15 | 15 | 0.005 | 0.003 | – | – | – | – | CC(C)c1cc(-c2ccc(F)cc2)nn2cc(C(=O)N3CCN(C(=O)[C@H](O)CC4CC4)[C@@H](C)C3)nc12 [Compound I-171]
27 | 15 | 15 | 0.33 | 0.022 | – | – | – | – | CCc1cc(-c2ccc(F)cc2)nn2cc(C(=O)N3CCN(C(=O)[C@H](O)C(C)(C)C)[C@@H](C)C3)nc12 [Compound I-172]
28 | 41 | 34 | 0.06 | 0.023 | – | – | – | – | CC(O)C(=O)N1CCN(C(=O)c2cn3nc(-c4ccc(F)cc4)cc(C(C)C)c3n2)C(C)(C)C1 (stereo not shown) [Compound I-175]
29 | 35 | 40 | 0.082 | 0.048 | – | – | – | – | CC(C)c1cc(-c2ccc(F)cc2)nn2cc(C(=O)N3CCN(C(=O)[C@H]4CCC(=O)N4)CC3(C)C)nc12 [Compound I-177]
30 | – | – | – | – | 1.14 | 1.27 | 0.0403 | 0.0173 | C[C@@H]1CN(c2cc(-c3ccc(F)cc3)nn3cc(C(=O)N4CCNC(=O)C4(C)C)nc23)C[C@H](C)O1 [Compound I-182]
31 | – | – | – | – | > 5 | > 5 | 0.157 | 0.117 | C[C@@H]1CN(c2cc(-c3ccc(F)cc3)nn3cc(C(=O)N4CCN(C(=O)C(C)(C)O)CC4(C)C)nc23)C[C@H](C)O1 [Compound I-185]
32 | – | – | – | – | 2.5 | 3.9 | 0.004 | 0.0018 | CN1CCN(C(=O)c2cn3nc(-c4ccc(F)cc4)cc(C(C)(C)C)c3n2)C(C)(C)C1=O [Compound I-188]
33 | – | – | – | – | > 50 | > 50 | 0.0048 | 0.0042 | CC(C)(C)OC(=O)N1CCN(C(=O)c2cn3nc(-c4ccc(F)cc4)cc(C(C)(C)C)c3n2)C(C)(C)C1 [Compound I-190]
34 | – | – | – | – | 10 | 19 | 0.046 | 0.0053 | COCC(C)(C)c1cc(-c2ccc(F)cc2)nn2cc(C(=O)N3CCNC(=O)C3(C)C)nc12 [Compound I-193]
35 | – | – | – | – | > 1 | > 1 | > 1 | 0.57 | CC(C)c1cc(-c2ccc(F)cc2)nn2cc(C(=O)N3CCN(C(=O)C(O)C(C)C)C[C@H]3C)nc12 (stereo partly shown) [Compound I-195]
36 | – | – | – | – | > 1 | > 1 | 0.0056 | 0.0044 | CC(C)(O)C(=O)N1CCN(C(=O)c2cn3nc(-c4ccc(F)cc4)cc(C(C)(C)C)c3n2)C(C)(C)C1 [Compound I-198]
37 | – | – | – | – | > 1 | > 1 | 0.0029 | 0.0024 | CC(C)(C)c1cc(-c2ccc(F)cc2)nn2cc(C(=O)N3CCN(C(=O)C4CCCO4)CC3(C)C)nc12 (stereo not shown) [Compound I-200]
